Experiments:
[1] = temperature increase of samples irradiated by near-infrared laser (photothermal); assay type: physicochemical; settings: near-infrared laser 1 W/cm^2, 650 nm
Text: (§1) The drug carriers of example 1 and example 2 are used for preparing nanomicelles and drug-encapsulating nanomicelles so as to undergo the following tests. When preparing the nanomicelles, the dried drug carriers are uniformly dissolved in dimethyl sulfoxide (DMSO) to obtain a drug-carrier-DMSO solution. Next, the dimethyl sulfoxide (DMSO) in the drug-carrier-DMSO solution is removed by lyophilization, and the nanomicelles formed by self-assembly of the drug carriers are left. Last, the nanomicelles are put into a phosphate buffered saline (PBS) and sonicated for 20 min; therefore, the nanomicelles are uniformly dissolved in the phosphate buffered saline (PBS) for the following tests.
(§2) When preparing the drug-encapsulating nanomicelles, the drug molecules selected to be encapsulated in the nanomicelles are Doxorubicin (Doxo). First, the dried drug carriers and Doxorubicin molecules are uniformly dissolved in dimethyl sulfoxide (DMSO) to obtain a drug-carrier-Doxorubicin-DMSO solution. […]
Please refer to FIG. 5. […] When a temperature increase of samples irradiated by near-infrared light (NIR) is measured, the near-infrared light is a near-infrared laser, and the samples are the phosphate buffered saline (PBS), the Doxorubicin (Doxo), the nanomicelles and the drug-encapsulating nanomicelles which encapsulate the Doxorubicin (Doxo). […]

[2] = system: cancer cells; assay: cell viability of cancer cells treated with nanomicelles, drug-encapsulating nanomicelles or free Doxorubicin; assay type: cell-based; design: dose or concentration left out as unconfirmed
Text: as §1
as §2, with “solution. Next, the dimethyl sulfoxide (DMSO) in the drug-carrier-Doxorubicin-DMSO solution is removed by lyophilization, and the drug-encapsulating nanomicelles formed by self-assembly of the drug carriers as well as Doxorubicin crystals which are not encapsulated in the drug-encapsulating nanomicelles are left.” for “solution.”

temperature change as irradiation time is increased [1]: no significant change
SMILES: COc1cccc2c1C(=O)c1c(O)c3c(c(O)c1C2=O)C[C@@](O)(C(=O)CO)C[C@@H]3O[C@H]1C[C@H](N)[C@H](O)[C@H](C)O1 [Doxorubicin (Doxo), Doxorubicin]
cell viability of the cancer cell [2]: 80%

— patent publication US9949929B2, “Drug carrier and manufacturing method thereof” (National Taiwan University Hospital, priority 2015, dated 2018)
